Measurements taken from US20250066379A1, “ANTIMALARIAL AGENTS” (Merck Sharp & Dohme LLC, priority 2021, published 2025).

Tested on: parasite
Assay: Parasite LDH growth assay (Parasite Assay)
Type: cell-based, Plasmodium falciparum
Settings: ring stage parasites, 72 hours growth at 37° C., LDH readout of parasite growth
Experimental: Assessing Antiparasite Potency in a Parasite LDH Growth Assay (Parasite Assay) The parasite stock was maintained at 4% haematocrit in RPMI-Hepes media 30 buffered with sodium bicarbonate and supplemented with 5% heat inactivated human serum and 0.5% albumax. Approximately 42 hours prior to the potency assay being set up, parasites were synchronized with 5% sorbitol to select for ring stage parasites. On the day of assay set up, a blood smear of the parasite culture was Giemsa stained and counted. The parasitemia was 35 adjusted to 0.7% rings and the haematocrit was diluted to 2% in RPMI-Hepes media buffered with sodium bicarbonate and supplemented with 5% heat inactivated human serum and 0.5% albumax. 30 ul of diluted parasites are then added into 10 μl of media+compound in pre-prepared Greiner TC assay plates. Parasite assay plates were placed in gassed humidified boxes in single layer and allowed to incubate at 37° C. for 72 hours. After 72 hours growth, assay plates are sealed with parafilm and frozen flat, in single file at −80° C. overnight. On the following day, assay plates were allowed to thaw at room temperature for 4 hours to which an LDH assay was performed to measure parasite growth.

SMILES | EC50 (Plasmodium falciparum, 72 h) [nM] | EC50 [nM]
CCC12CCCCCc3ccc4c(c3)[C@H](CC(C)(C)O4)NC(=O)c3ccc4c(c3)[C@@H]([C@H](COC)CO4)N(C(=N)N1)C(=O)C2 (mixture of isomers) [Example 16B, rac-(1R,18S,27R)-5-ethyl-3-imino-27-(methoxymethyl)-16,16-dimethyl-15,25-dioxa-2,4,19-triazahexacyclo[19. 6.2.22,5.211,14.013, 18.024,28] tritriaconta-11,13,21,23,28,30-hexaene-20,33-dione] | 3.4 | –
CCC12CCCC3CC3c3ccc4c(c3)[C@H](CC(C)(C)O4)NC(=O)c3ccc4c(c3)[C@@H]([C@H](COC)CO4)N(C(=N)N1)C(=O)C2 (mixture of isomers) [Example 17, rac-(12R,13R,22S)-8-ethyl-10-imino-13-(methoxymethyl)-24,24-dimethyl-15,25-dioxa-9,11,21-triazaheptacyclo[20. 6.2.28,11.216,19.02, 4.012,17.026,30] tetratriaconta-1(29),16(32),17,19 (31),26(30),27-hexaene-20,33-dione] | 18.9 | –
CC[C@]12CCC/C=C/c3ccc4c(c3)[C@H](CCO4)NC(=O)c3ccc4c(c3)[C@@H](CCO4)N(C(=N)N1)C(=O)C2 (racemic) [Example 18, rac-(1R,5R,9E,18S)-5-ethyl-3-imino-15,25-dioxa-2,4,19-triazahexacyclo[19. 6.2.22,5.211,14.013, 18.024,28] tritriaconta-9,11,13,21,23,28,30-heptaene-20,33-dione] | 6 | –
CC[C@]12CCCCCc3ccc4c(c3)[C@H](CCO4)NC(=O)c3ccc4c(c3)[C@@H](CCO4)N(C(=N)N1)C(=O)C2 (racemic) [Example 19, rac-(1R,5R,18S)-5-ethyl-3-imino-15,25-dioxa-2,4,19-triazahexacyclo[19. 6.2.22,5.211,14.013, 18.024,28] tritriaconta-11,13,21,23,28,30-hexaene-20,33-dione] | 4.8 | –
CCC12CC/C=C/c3ccc4c(c3)[C@H](CC(C)(C)O4)NC(=O)c3ccc4c(c3)[C@@H](CCO4)N(C(=N)N1)C(=O)C2 (mixture of isomers) [Example 20, rac-(1R,8E,17S)-5-ethyl-3-imino-15,15-dimethyl-14,24-dioxa-2,4,18-triazahexacyclo[18. 6.2.22,5.210,13.012, 17.023,27] dotriaconta-8,10,12,20,22,27,29-heptaene-19,32-dione] | 3.6 | –
CC[C@]12CCCC3CC3c3ccc4c(c3)[C@H](CCO4)NC(=O)c3ccc4c(c3)[C@@H](CCO4)N(C(=N)N1)C(=O)C2 (mixture of isomers) [Example 21, rac-(8R,12R,22S)-8-ethyl-10-imino-15,25-dioxa-9,11,21-triazaheptacyclo[20. 6.2.28,11.216,19.02, 4.012,17.026,30] tetratriaconta-1(29),16(32),17,19 (31),26(30),27-hexaene-20,33-dione] | 5.1 | –
CC[C@]12CCCCCc3ccc4c(c3)OC(C)(C)C[C@@H]4NC(=O)c3ccc4c(c3)[C@@H](CCO4)N(C(=N)N1)C(=O)C2 (racemic) [Example 22, rac-(1R,5R,19S)-5-ethyl-3-imino-17,17-dimethyl-16,26-dioxa-2,4,20-triazahexacyclo[20. 6.2.22,5.111,15.014, 19.025,29] tritriaconta-11(31),12,14,22,24, 29-hexaene-21,33-dione] | 57.4 | –
CCC12CCCCC/C=C\c3ccc4c(c3)OC(C)(C)C[C@@H]4NC(=O)c3ccc4c(c3)[C@@H](CCO4)N(C(=N)N1)C(=O)C2 (racemic) [Example 23, rac-(1R,11Z,21S)-5-ethyl-3-imino-19,19-dimethyl-18,28-dioxa-2,4,22-triazahexacyclo[22. 6.2.22,5.113,17.016, 21.027,31] pentatriaconta-11,13(33),14,16,24, 26,31-heptaene-23,35-dione] | 7.5 | –
CCC12CCCCCCCc3ccc4c(c3)OC(C)(C)C[C@@H]4NC(=O)c3ccc4c(c3)[C@@H](CCO4)N(C(=N)N1)C(=O)C2 (racemic) [Example 24A, rac-(1R,21S)-5-ethyl-3-imino-19,19-dimethyl-18,28-dioxa-2,4,22-triazahexacyclo[22. 6.2.22,5.113,17.016, 21.027,31] pentatriaconta-13(33),14,16,24,26, 31-hexaene-23,35-dione] | – | 5.4
CCC12CCCCCCCc3ccc4c(c3)OC(C)(C)C[C@@H]4NC(=O)c3ccc4c(c3)[C@@H](CCO4)N(C(=N)N1)C(=O)C2 (racemic) [Example 24B, rac-(1R,21S)-5-ethyl-3-imino-19,19-dimethyl-18,28-dioxa-2,4,22-triazahexacyclo[22. 6.2.22,5.113,17.016, 21.027,31] pentatriaconta-13(33),14,16,24,26, 31-hexaene-23,35-dione] | – | 2
COC[C@@H]1COc2ccc3cc2[C@@H]1N1C(=N)NC(C)(CCCCCc2ccc4c(c2)[C@H](CC(C)(C)O4)NC3=O)CC1=O (mixture of isomers) [Example 25A, rac-(1R,18S,27R)-3-imino-27-(methoxymethyl)-5,16,16-trimethyl-15,25-dioxa-2,4,19-triazahexacyclo[19. 6.2.22,5.211,14.013, 18.024,28] tritriaconta-11,13,21,23,28,30-hexaene-20,33-dione] | – | 23
COC[C@@H]1COc2ccc3cc2[C@@H]1N1C(=N)NC(C)(CCCCCc2ccc4c(c2)[C@H](CC(C)(C)O4)NC3=O)CC1=O (mixture of isomers) [Example 25B, rac-(1R,18S,27R)-3-imino-27-(methoxymethyl)-5,16,16-trimethyl-15,25-dioxa-2,4,19-triazahexacyclo[19. 6.2.22,5.211,14.013, 18.024,28] tritriaconta-11,13,21,23,28,30-hexaene-20,33-dione] | – | 0.7
CCC12CCC/C=C/c3ccc4c(c3)[C@H](CC(C)(C)O4)NC(=O)c3ccc4c(c3)[C@@H]([C@H](COC)CO4)N(C(=N)N1)C(=O)C2 (mixture of isomers) [Example 26A, rac-(1R,9E,18S,27R)-5-ethyl-3-imino-27-(methoxymethyl)-16,16-dimethyl-15,25-dioxa-2,4,19-triazahexacyclo[19. 6.2.22,5.211,14.013, 18.024,28] tritriaconta-9,11,13,21,23,28,30-heptaene-20,33-dione] | – | 190
CCC12CCC/C=C/c3ccc4c(c3)[C@H](CC(C)(C)O4)NC(=O)c3ccc4c(c3)[C@@H]([C@H](COC)CO4)N(C(=N)N1)C(=O)C2 (mixture of isomers) [Example 26B, rac-(1R,9E,18S,27R)-5-ethy1-3-imino-27-(methoxymethyl)-16,16-dimethyl-15,25-dioxa-2,4,19-triazahexacyclo[19. 6.2.22,5.211,14.013, 18.024,28] tritriaconta-9,11,13,21,23,28,30-heptaene-20,33-dione] | – | 7.4
CCC12CCCCCc3ccc4c(c3)[C@@H](NC(=O)c3ccc5c(c3)[C@@H]([C@H](COC)CO5)N(C(=N)N1)C(=O)C2)[C@H](O)C4 (single isomer, unassigned) [Example 15A] | – | 9.2
CCC12CCCCCc3ccc4c(c3)[C@@H](NC(=O)c3ccc5c(c3)[C@@H]([C@H](COC)CO5)N(C(=N)N1)C(=O)C2)[C@H](O)C4 (single isomer, unassigned) [Example 15B] | – | 81
CC[C@]12CCCC(C)c3ccc4c(c3)[C@@H](NC(=O)c3ccc5c(c3)[C@@H](CCO5)N(C(=N)N1)C(=O)C2)[C@H](O)C4 (stereo partly drawn) [Example 1, (1R,5R,15R,16R)-5-ethyl-15-hydroxy-3-imino-9-methyl-23-oxa-2,4,17-triazahexacyclo[17.6.2.22,5.210,13.012,16.022,26]hentriaconta-10,12,19,21,26,28-hexaene-18,31-dione] | 2.7 | –
CC[C@]12CCCCCc3ccc4c(c3)[C@@H](NC(=O)c3ccc5c(c3)[C@@H](CCO5)N(C(=N)N1)C(=O)C2)[C@H](O)C4 [Example 2, (1R,5R,16R,17R)-5-ethyl-16-hydroxy-3-imino-24-oxa-2,4,18-triazahexacyclo[18.6.2.22,5.211,14.013,17.023,27]dotriaconta-11,13,20,22,27,29-hexaene-19,32-dione] | 11 | –
CC[C@]12CCCCc3ccc4c(c3)[C@H](CC(C)(C)O4)NC(=O)c3ccc4c(c3)[C@@H](CCO4)N(C(=N)N1)C(=O)C2 [Example 3A, (1R,5R,17S)-5-ethyl-3-imino-15,15-dimethyl-14,24-dioxa-2,4,18-triazahexacyclo[18.6.2.22,5.210,13.012,17.023,27]dotriaconta-10,12,20,22,27,29-hexaene-19,32-dione] | 0.2 | –
CC[C@@]12CCCCc3ccc4c(c3)[C@H](CC(C)(C)O4)NC(=O)c3ccc4c(c3)[C@@H](CCO4)N(C(=N)N1)C(=O)C2 [Example 3B, (1R,5S,17S)-5-ethyl-3-imino-15,15-dimethyl-14,24-dioxa-2,4,18-triazahexacyclo[18. 6.2.22,5.210,13.012, 17.023,27] dotriaconta-10,12,20,22,27,29-hexaene-19,32-dione] | 270 | –
CC[C@]12CCCCOc3ccc4c(c3)[C@H](CC(C)(C)O4)NC(=O)c3ccc4c(c3)[C@@H](CCO4)N(C(=N)N1)C(=O)C2 [Example 4, (1R,5R,18S)-5-ethyl-3-imino-16,16-dimethyl-10,15,25-trioxa-2,4,19-triazahexacyclo[19.6.2.22,5.211,14.013,18.024,28]tritriaconta-11,13,21,23,28,30-hexaene-20,33-dione] | 2 | –
CC[C@]12CCC/C=C/c3ccc4c(c3)[C@@H](NC(=O)c3ccc5c(c3)[C@@H](CCO5)N(C(=N)N1)C(=O)C2)[C@H](O)C4 [Example 5, (1R,5R,9E,16R, 17R)-5-ethyl-16-hydroxy-3-imino-24-oxa-2,4,18-triazahexacyclo[18. 6.2.22,5.211,14.013, 17.023,27] dotriaconta-9,11,13,20,22,27, 29-heptaene-19,32-dione] | 0.9 | –
